Residue numbers refer to the chain shown, from its start. “Also recorded” adds a separate entry of the source. Like-named read-outs stand apart in the source and are kept apart here.
What was measured:
CCK2R [1] = target: T1, CCK2R (Homo sapiens, UniProt P32239); assay: Intracellular calcium response in CHO-CCK2R cells; format: cell-based
T1 sequence (P32239 1-447): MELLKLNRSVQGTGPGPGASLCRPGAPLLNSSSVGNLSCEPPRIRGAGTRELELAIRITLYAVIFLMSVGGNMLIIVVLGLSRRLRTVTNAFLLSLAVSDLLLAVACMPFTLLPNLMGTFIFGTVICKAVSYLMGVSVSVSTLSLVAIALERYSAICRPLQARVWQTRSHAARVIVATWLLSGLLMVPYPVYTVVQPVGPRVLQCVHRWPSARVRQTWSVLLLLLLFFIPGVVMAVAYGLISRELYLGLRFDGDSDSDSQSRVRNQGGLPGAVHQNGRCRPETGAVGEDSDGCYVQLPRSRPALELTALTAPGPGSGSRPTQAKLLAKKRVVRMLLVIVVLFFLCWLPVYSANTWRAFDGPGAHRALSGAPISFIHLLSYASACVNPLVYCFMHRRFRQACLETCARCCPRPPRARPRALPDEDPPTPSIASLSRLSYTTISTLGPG

CCK1R [2] = target: T2, CCK1R (Homo sapiens, UniProt P32238); format: cell-based
T2 sequence (P32238 1-428): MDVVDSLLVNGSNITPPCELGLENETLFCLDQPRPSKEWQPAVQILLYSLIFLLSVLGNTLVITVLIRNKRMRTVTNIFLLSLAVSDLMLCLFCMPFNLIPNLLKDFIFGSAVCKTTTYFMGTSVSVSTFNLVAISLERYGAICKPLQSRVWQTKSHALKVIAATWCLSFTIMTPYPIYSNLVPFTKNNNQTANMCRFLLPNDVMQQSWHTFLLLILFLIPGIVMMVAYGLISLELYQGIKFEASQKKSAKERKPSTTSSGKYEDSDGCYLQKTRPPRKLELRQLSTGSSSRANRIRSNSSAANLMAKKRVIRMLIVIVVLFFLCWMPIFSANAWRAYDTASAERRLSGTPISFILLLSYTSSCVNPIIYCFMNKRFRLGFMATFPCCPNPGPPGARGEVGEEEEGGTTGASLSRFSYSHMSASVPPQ

CCK1R [3] = target: T2, CCK1R; assay: Competition binding of orthosteric radioligand 125I-CCK, CHO cell membranes
CCK1R [4] = target: T2, CCK1R; assay: Intracellular calcium response in CHO-CCK1R cells; format: cell-based; conditions: % of the ATP (0.1mM) positive control
CCK2R TM2 (T2.61N) [5] = target: T3, CCK2R TM2 (T2.61N) (Homo sapiens, UniProt P32239, T111N); assay: 125I-BDZ-2 competition binding, chimeric construct; conditions: NDB = no detectable binding
T3 sequence (P32239 1-447 T111N): T1 sequence (P32239 1-447) with T111N

CCK2R TM2 (T2.61N) [6] = target: T3, CCK2R TM2 (T2.61N); assay: 125I-CCK competition binding, chimeric construct
[7] = target: T4, CCK2R TM3 (V3.28T, S3.29T) (Homo sapiens, UniProt P32239, S131T/V130T); assay: 125I-CCK competition binding, chimeric construct
T4 sequence (P32239 1-447 V130T/S131T): T1 sequence (P32239 1-447) with V130T, S131T

[8] = target: T5, CCK2R TM6 (V6.51I, Y6.52F) (Homo sapiens, UniProt P32239, V349I/Y350F); assay: 125I-BDZ-2 competition binding, chimeric construct
T5 sequence (P32239 1-447 V349I/Y350F): T1 sequence (P32239 1-447) with V349I, Y350F

[9] = target: T5, CCK2R TM6 (V6.51I, Y6.52F); assay: 125I-CCK competition binding, chimeric construct
[10] = tested on: CCK2R TM chimeric constructs; assay: 125I-BDZ-2 competition binding, CCK2R-based chimeras as a group
CCK2R [11] = target: T1, CCK2R; assay: Competition binding of orthosteric radioligand 125I-CCK, CHO cell membranes; conditions: 125I-CCK radioligand

Row | SMILES | Intracellular calcium response at CCK2R-expressing cells (CCK2R [1]) | Decrease in efficacy of the CCK response (CCK1R [2]; 1µM compound) [%] | Allosteric modulatory (PAM) activity on CCK dose-response curve (CCK1R [2]; increasing concentrations of compound) | IC50 (CCK1R [3]) [nM] | Intrinsic agonist response (CCK1R [4]; 100nM compound) [%] | Intrinsic agonist response (CCK1R [4]; 1µM compound) [%] | Shift to the right in the CCK dose-response curve (CCK1R [2]; 100nM compound) [fold] | Shift to the right in the CCK dose-response curve (CCK1R [2]; 1µM compound) [fold] | IC50, 125I-BDZ-2 (CCK2R TM2 (T2.61N) [5]) | IC50 (CCK2R TM2 (T2.61N) [6]) [nM] | Right shift (poorer affinity) vs wild type CCK2R (CCK2R TM2 (T2.61N) [6]; 125I-CCK, CCK2R TM2 substitution) [fold] | IC50 [7] [nM] | IC50 [8] [nM] | IC50 [9] [nM] | Change in binding affinity at chimeras vs wild type CCK2R [10] | Fold lower IC50 at CCK2R than at CCK1R (CCK2R [11])
1 | O=C(CN1C(=O)C(NC(=O)Nc2ccccc2)C(=O)N(c2ccccc2)c2ccccc21)Nc1ccccc1 (stereo not drawn) | stimulated no intracellular calcium responses | 11 | – | – | – | – | – | – | – | – | – | – | – | – | – | –
2 | CC(C)N(C(=O)CN1C(=O)[C@H](NC(=O)Nc2cccc(C(=O)O)c2)C(=O)N(c2ccccc2)c2ccccc21)c1ccccc1 [GI181771X, reference compound] | – | – | did not yield a significant left-shift or an increase in efficacy; also recorded: no PAM activity | – | – | – | – | – | – | – | – | – | – | – | – | –
3 | COc1ccc(N(C)C(=O)CN2C(=O)C(NC(=O)Nc3ccccc3)C(=O)N(c3ccccc3)c3ccccc32)cc1 (stereo not drawn) [GR135470X] | stimulated no intracellular calcium responses | 14 | – | 450 ± 104 | 43 | 48 | 3.6 | 8.5 | NDB | 519 ± 138 | 10 | 10.1 ± 1.6 | 36 ± 5.5 | 165 ± 38 | none of the chimeras tested exhibited a change in binding affinities | ~ 9 fold

— paper PMC4408270 (Bioorganic & medicinal chemistry letters, 2015)
